The structures appear in SMILES notation.

T1 sequence (O00763 144-2458): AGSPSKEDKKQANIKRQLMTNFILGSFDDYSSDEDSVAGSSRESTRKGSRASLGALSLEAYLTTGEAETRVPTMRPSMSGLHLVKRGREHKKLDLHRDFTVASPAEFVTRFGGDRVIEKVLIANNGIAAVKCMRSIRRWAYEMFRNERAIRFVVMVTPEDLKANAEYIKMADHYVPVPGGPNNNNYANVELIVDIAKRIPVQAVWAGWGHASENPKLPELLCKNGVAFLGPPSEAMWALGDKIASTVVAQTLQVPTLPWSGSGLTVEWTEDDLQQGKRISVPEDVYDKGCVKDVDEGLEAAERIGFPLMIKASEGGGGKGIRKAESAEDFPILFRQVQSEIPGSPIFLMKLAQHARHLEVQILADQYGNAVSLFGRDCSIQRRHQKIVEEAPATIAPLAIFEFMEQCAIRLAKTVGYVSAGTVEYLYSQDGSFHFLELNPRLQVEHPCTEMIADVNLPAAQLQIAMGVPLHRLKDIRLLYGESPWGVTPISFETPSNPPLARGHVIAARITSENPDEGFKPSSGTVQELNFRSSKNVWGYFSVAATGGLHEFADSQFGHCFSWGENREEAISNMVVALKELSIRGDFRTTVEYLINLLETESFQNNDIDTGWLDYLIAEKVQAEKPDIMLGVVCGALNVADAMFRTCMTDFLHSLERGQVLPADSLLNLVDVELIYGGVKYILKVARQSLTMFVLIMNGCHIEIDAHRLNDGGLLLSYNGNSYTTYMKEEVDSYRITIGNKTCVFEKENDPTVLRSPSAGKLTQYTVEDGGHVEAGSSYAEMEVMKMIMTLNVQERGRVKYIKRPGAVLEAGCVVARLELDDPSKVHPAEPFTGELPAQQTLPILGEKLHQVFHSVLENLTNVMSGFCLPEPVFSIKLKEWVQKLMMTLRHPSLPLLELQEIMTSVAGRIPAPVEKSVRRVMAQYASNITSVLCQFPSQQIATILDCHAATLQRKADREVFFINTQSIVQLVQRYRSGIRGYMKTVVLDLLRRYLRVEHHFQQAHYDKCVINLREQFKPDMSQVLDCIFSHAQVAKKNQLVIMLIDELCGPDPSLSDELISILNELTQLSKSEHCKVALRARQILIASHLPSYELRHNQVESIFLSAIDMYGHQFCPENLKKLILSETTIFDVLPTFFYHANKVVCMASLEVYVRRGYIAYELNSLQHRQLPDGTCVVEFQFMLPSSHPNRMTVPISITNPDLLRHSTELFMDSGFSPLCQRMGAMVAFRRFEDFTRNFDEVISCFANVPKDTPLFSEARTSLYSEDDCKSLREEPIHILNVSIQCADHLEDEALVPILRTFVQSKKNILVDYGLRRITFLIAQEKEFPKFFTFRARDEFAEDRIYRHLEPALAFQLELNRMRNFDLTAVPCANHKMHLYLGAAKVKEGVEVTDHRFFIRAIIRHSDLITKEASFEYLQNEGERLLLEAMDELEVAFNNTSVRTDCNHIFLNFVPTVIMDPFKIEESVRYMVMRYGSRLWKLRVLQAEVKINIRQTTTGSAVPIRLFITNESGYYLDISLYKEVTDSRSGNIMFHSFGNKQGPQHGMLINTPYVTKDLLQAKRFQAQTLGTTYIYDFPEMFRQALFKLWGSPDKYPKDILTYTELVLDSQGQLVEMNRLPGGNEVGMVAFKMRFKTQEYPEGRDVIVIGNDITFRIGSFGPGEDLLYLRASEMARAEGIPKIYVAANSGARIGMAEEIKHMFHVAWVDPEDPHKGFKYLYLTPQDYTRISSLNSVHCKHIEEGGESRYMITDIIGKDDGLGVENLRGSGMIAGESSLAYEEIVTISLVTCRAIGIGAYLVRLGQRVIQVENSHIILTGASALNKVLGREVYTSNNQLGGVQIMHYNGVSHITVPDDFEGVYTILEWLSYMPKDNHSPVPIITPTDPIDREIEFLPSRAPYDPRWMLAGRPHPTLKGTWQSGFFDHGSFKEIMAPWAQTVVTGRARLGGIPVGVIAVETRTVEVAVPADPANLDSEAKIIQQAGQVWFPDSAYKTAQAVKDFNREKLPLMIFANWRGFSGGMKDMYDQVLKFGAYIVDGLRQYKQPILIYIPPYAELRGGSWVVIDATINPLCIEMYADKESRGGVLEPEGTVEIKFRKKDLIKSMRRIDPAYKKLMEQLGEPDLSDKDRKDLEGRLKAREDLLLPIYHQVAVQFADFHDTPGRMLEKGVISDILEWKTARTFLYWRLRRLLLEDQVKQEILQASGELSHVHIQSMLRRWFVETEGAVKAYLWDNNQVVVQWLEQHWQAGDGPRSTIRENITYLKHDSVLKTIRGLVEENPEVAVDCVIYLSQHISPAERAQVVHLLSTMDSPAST

The assay concerns the target T1, human acetyl-CoA carboxylase 2 (ACC2) (Homo sapiens, UniProt O00763).
T1 construct: The cDNA encoding amino acids 144 to 2458 of human acetyl-CoA carboxylase 2; made in house; host or cells: Sf9 insect cells (baculovirus, pFastBac1)
Nature of the assay: Acetyl-CoA carboxylase enzyme assay (malonyl-CoA formation by LC/MS/MS). The class given is biochemical. Conditions: recombinant human ACC2 (aa 144-2458); read-out: IC50 ACC2. The method in brief: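 Malonyl-CoA formation was read by LC/MS/MS MRM against a [13C3]-malonyl-CoA internal standard, after acetic acid quench. The enzyme was baculovirus/Sf9-expressed human ACC2 residues 144–2458, given 15 minutes room-temperature compound preincubation in HEPES pH 7.5 buffer with MgCl2, citrate and DTT. Substrate solution held 50 μM acetyl-CoA, 120 μM ATP and 2 mM KHCO3.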
In general, IC50 refers to the concentration that gives 50% inhibition. Regarding `CC(C)(C)c1nnc([C@H]2CC[C@H](NS(=O)(=O)c3ccc4[nH]c(-c5ccc(N6CCOCC6)cc5)nc4c3)CC2)o1` [Example 588, N-((1r,4r)-4-(5-tert-butyl-1,3,4-oxadiazol-2-yl)cyclohexyl)-2-(4-morpholinophenyl)-1H-benzo[d]imidazole-5-sulfonamide], the IC50 amounted to 267 nM. Under `C[C@@H](NC(=O)[C@H]1CC[C@H](NS(=O)(=O)c2ccc3c(c2)nc(-c2ccccc2)n3C)CC1)c1ccc(F)cc1` [Example 4, (1r,4R)—N—((R)-1-(4-fluorophenyl)ethyl)-4-(1-methyl-2-phenyl-1H-benzo[d]imidazole-5-sulfonamido)cyclohexanecarboxamide] stands 13 nM; under `Cn1c(-c2ccc(CCC(=O)O)cc2)cc2ccc(S(=O)(=O)N[C@H]3CC[C@H](C(=O)N4CCC[C@H]4C(C)(C)C)CC3)cc21` [Example 399, 3-(4-(6-(N-((1S,4r)-4-((S)-2-tert-butylpyrrolidine-1-carbonyl)cyclohexyl)sulfamoyl)-1-methyl-1H-indol-2-yl)phenyl)propanoic acid], 340 nM; under `COc1ccc(Nc2nc3cc(S(=O)(=O)Nc4ccc(C(=O)OC(C)C)cc4)ccc3[nH]2)cc1OC` [Example 531, isopropyl 4-(2-(3,4-dimethoxyphenylamino)-1H-benzo[d]imidazole-5-sulfonamido)benzoate], 248 nM. With `C[C@@H](NC(=O)[C@H]1CC[C@H](NS(=O)(=O)c2ccc3nc(-c4cccnc4)ccc3c2)CC1)c1ccc(F)cc1` [Example 218, (1r,4R)-N-((R)-1-(4-fluorophenyl)ethyl)-4-(2-(pyridin-3-yl)quinoline-6-sulfonamido)cyclohexanecarboxamide] the figure was 20 nM; with `Cc1cc(CO)ccc1-c1cc2ccc(S(=O)(=O)N[C@H]3CC[C@H](C(=O)N[C@H](C)c4ccc(F)cc4)CC3)cc2[nH]1` [Example 302, (1r,4R)-N-((R)-1-(4-fluorophenyl)ethyl)-4-(2-(4-(hydroxymethyl)-2-methylphenyl)-1H-indole-6-sulfonamido)cyclohexanecarboxamide], < 10 nM. With `Cn1c(-c2ccccc2)cc2cc(S(=O)(=O)N[C@H]3CC[C@H](C(=O)N[C@H](CC(=O)OC(C)(C)C)c4ccccc4)CC3)ccc21` [Example 94, (R)-tert-butyl 3-((1r,4R)-4-(1-methyl-2-phenyl-1H-indole-5-sulfonamido)cyclohexanecarboxamido)-3-phenylpropanoate] the figure was 75 nM; with `CC(C)OC(=O)c1ccc(NS(=O)(=O)c2ccc3[nH]c(Nc4ccc(Cl)cc4)nc3c2)cc1` [Example 529, isopropyl 4-(2-(4-chlorophenylamino)-1H-benzo[d]imidazole-5-sulfonamido)benzoate], 644 nM; with `CC(C)OC(=O)c1ccc(NS(=O)(=O)c2ccc3[nH]c(Nc4cccc([N+](=O)[O-])c4)nc3c2)cc1` [Example 538, isopropyl 4-(2-(3-nitrophenylamino)-1H-benzo[d]imidazole-5-sulfonamido)benzoate], 77 nM. As for `C[C@@H](NC(=O)[C@H]1CC[C@H](NS(=O)(=O)c2ccc3[nH]c(-c4ccc(C(=O)O)cc4)nc3c2)CC1)c1ccccc1` [Example 278, 4-(5-(N-((1R,4r)-4-((R)-1-phenylethylcarbamoyl)cyclohexyl)sulfamoyl)-1H-benzo[d]imidazol-2-yl)benzoic acid], the IC50 was 66 nM.

As for `CC1(C)CN(C(=O)[C@H]2CC[C@H](NS(=O)(=O)c3ccc4c(Cl)c(-c5ccccc5)[nH]c4c3)CC2)CCO1` [Example 469, 3-chloro-N-((1r,4r)-4-(2,2-dimethylmorpholine-4-carbonyl)cyclohexyl)-2-phenyl-1H-indole-6-sulfonamide], the IC50 is 90 nM.

For `COC[C@H]1CCCN1C(=O)[C@H]1CC[C@H](NS(=O)(=O)c2ccc3c(C#N)c(C4CC4)n(C)c3c2)CC1` [Example 418, 3-cyano-2-cyclopropyl-N-((1R,4r)-4-((R)-2-(methoxymethyl)pyrrolidine-1-carbonyl)cyclohexyl)-1-methyl-1H-indole-6-sulfonamide], the IC50 came out at 65 nM. Under `CC[C@@H]1CCc2cc(S(=O)(=O)N[C@H]3CC[C@H](C(=O)N[C@H](C)c4ccc(F)cc4)CC3)ccc2N1` [Example 171, (1r,4R)-4-((R)-2-ethyl-1,2,3,4-tetrahydroquinoline-6-sulfonamido)-N-((R)-1-(4-fluorophenyl)ethyl)cyclohexanecarboxamide] stands 289 nM; under `O=C(NC1(c2ccccc2)CC1)[C@H]1CC[C@H](NS(=O)(=O)c2ccc3[nH]c(-c4ccccc4)nc3c2)CC1` [Example 581, (1r,4r)-4-(2-phenyl-1H-benzo[d]imidazole-5-sulfonamido)-N-(1-phenylcyclopropyl)cyclohexanecarboxamide], 309 nM.

As to `C[C@H]1CCCCN1C(=O)[C@H]1CC[C@H](NS(=O)(=O)c2ccc3c(Cl)c(-c4ccc(CCC(=O)O)cc4)n(C)c3c2)CC1` [Example 416, 3-(4-(3-chloro-1-methyl-6-(N-((1S,4r)-4-((S)-2-methylpiperidine-1-carbonyl)cyclohexyl)sulfamoyl)-1H-indol-2-yl)phenyl)propanoic acid], the IC50 is < 10 nM. Under `C[C@@H](NC(=O)[C@H]1CC[C@H](NS(=O)(=O)c2ccc3[nH]c(Nc4ccc(N5CCN(C)CC5)cc4)nc3c2)CC1)c1ccccc1` [Example 606, (1r,4R)-4-(2-(4-(4-methylpiperazin-1-yl)phenylamino)-1H-benzo[d]imidazole-5-sulfonamido)-N-((R)-1-phenylethyl)cyclohexanecarboxamide] stands < 10 nM; under `CC(C)c1nnc([C@H]2CC[C@H](NS(=O)(=O)c3ccc4[nH]c(-c5ccc(N6CCN(C)CC6)cc5)nc4c3)CC2)o1` [Example 587, N-((1r,4r)-4-(5-isopropyl-1,3,4-oxadiazol-2-yl)cyclohexyl)-2-(4-(4-methylpiperazin-1-yl)phenyl)-1H-benzo[d]imidazole-5-sulfonamide], 294 nM. With `Cc1ccccc1-c1cc2ccc(S(=O)(=O)N[C@H]3CC[C@H](C(=O)N4CCNC[C@@H]4c4ccccc4)CC3)cc2[nH]1` [Example 325, N-((1S,4r)-4-((S)-2-phenylpiperazine-1-carbonyl)cyclohexyl)-2-o-tolyl-1H-indole-6-sulfonamide] the figure was < 10 nM. As to `C[C@@H](NC(=O)[C@H]1CC[C@H](NS(=O)(=O)c2ccc3nc(C4CCOCC4)[nH]c3c2)CC1)c1ccc(F)cc1` [Example 6, (1r,4R)—N—((R)-1-(4-fluorophenyl)ethyl)-4-(2-(tetrahydro-2H-pyran-4-yl)-1H-benzo[d]imidazole-6-sulfonamido)cyclohexanecarboxamide], the IC50 was determined as 156 nM. With `C[C@@H](NC(=O)[C@H]1CC[C@H](NS(=O)(=O)c2ccc3nc(-c4cccc(C(=O)O)c4)ccc3c2)CC1)c1ccc(F)cc1` [Example 249, 3-(6-(N-((1R,4r)-4-((R)-1-(4-fluorophenyl)ethylcarbamoyl)cyclohexyl)sulfamoyl)quinolin-2-yl)benzoic acid] the figure was 10 nM; with `CCOC(=O)C1CCCN(C(=O)[C@H]2CC[C@H](NS(=O)(=O)c3ccc4cc(-c5ccc(F)cc5)n(C)c4c3)CC2)C1` (stereo partly shown) [Example 345, ethyl 1-((1r,4r)-4-(2-(4-fluorophenyl)-1-methyl-1H-indole-6-sulfonamido)cyclohexanecarbonyl)piperidine-3-carboxylate], 255 nM; with `C[C@H]1COCCN1C(=O)[C@H]1CC[C@H](NS(=O)(=O)c2ccc3c(Cl)c(-c4ccc(CCC(=O)O)cc4)n(C)c3c2)CC1` [Example 428, 3-(4-(3-chloro-1-methyl-6-(N-((1S,4r)-4-((S)-3-methylmorpholine-4-carbonyl)cyclohexyl)sulfamoyl)-1H-indol-2-yl)phenyl)propanoic acid], < 10 nM. Under `C[C@@H](NC(=O)[C@H]1CC[C@H](NS(=O)(=O)c2ccc3[nH]c(Nc4ccc(N5CCOCC5)cc4)nc3c2)CC1)c1ccccc1` [Example 574, (1r,4R)-4-(2-(4-morpholinophenylamino)-1H-benzo[d]imidazole-5-sulfonamido)-N-((R)-1-phenylethyl)cyclohexanecarboxamide] stands < 10 nM; under `O=C([C@H]1CC[C@H](NS(=O)(=O)c2ccc3[nH]c(-c4ccccc4)nc3c2)CC1)N1CCN(c2ccccc2)CC1` [Example 617, 2-phenyl-N-((1r,4r)-4-(4-phenylpiperazine-1-carbonyl)cyclohexyl)-1H-benzo[d]imidazole-5-sulfonamide], 996 nM.

`Cc1ccccc1-c1cc2ccc(S(=O)(=O)N[C@H]3CC[C@H](C(=O)N4CCOC[C@@H]4C4CC4)CC3)cc2[nH]1` [Example 481, N-((1S,4r)-4-((S)-3-cyclopropylmorpholine-4-carbonyl)cyclohexyl)-2-o-tolyl-1H-indole-6-sulfonamide]: the IC50 turned out to be 20 nM. Regarding `C[C@@H](NC(=O)[C@H]1CC[C@H](NS(=O)(=O)c2cnc3ccccc3c2)CC1)c1ccc(Cl)cc1` [Example 57, (1r,4R)-N-((R)-1-(4-chlorophenyl)ethyl)-4-(quinoline-3-sulfonamido)cyclohexanecarboxamide], the IC50 is 112 nM. Regarding `O=C(NC1CCCCC1)[C@H]1CC[C@H](NS(=O)(=O)c2ccc3[nH]c(-c4ccccc4)nc3c2)CC1` [Example 632, (1r,4r)-N-cyclohexyl-4-(2-phenyl-1H-benzo[d]imidazole-5-sulfonamido)cyclohexanecarboxamide], the IC50 amounted to 145 nM. Under `C[C@H]1COCCN1C(=O)[C@H]1CC[C@H](NS(=O)(=O)c2ccc3c(Cl)c(C4CC4)n(C)c3c2)CC1` [Example 426, 3-chloro-2-cyclopropyl-1-methyl-N-((1S,4r)-4-((S)-3-methylmorpholine-4-carbonyl)cyclohexyl)-1H-indole-6-sulfonamide] stands 55 nM.

The record behind these values is patent US8697739B2, “Bicyclic acetyl-CoA carboxylase inhibitors and uses thereof” (Novartis AG, priority 2010, dated 2014).
